Assay results from PubChem BioAssay AID248 (DTP/NCI, 2004).
Inconclusive results and toxic doses are left out. No stated cut-off is given here; in the data, active means T/C of 150% or more; inactive means T/C below 125%.

System: L1210 leukemia ip in BDF1 mice, survival T/C
Experiment: NCI In Vivo Anticancer Drug Screen. Data for tumor model L1210 Leukemia (intraperitoneal) in B6D2F1 (BDF1) mice
Details: endpoint: mean survival time, schedule: Q01DX001 (ip), vehicle: saline, higher = longer survival
In short: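 Read-out is survival time, reported as the treated-group measurement over the vehicle-control measurement.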

Measured: T/C

O=C(O)C(=O)Cc1c(Cl)cccc1[N+](=O)[O-]
inactive: dose: 50.0 mg/kg/injection 104 % of control | dose: 100.0 mg/kg/injection 101 % of control | dose: 200.0 mg/kg/injection 106 % of control | dose: 400.0 mg/kg/injection 104 % of control
